Measurements as given in paper PMC8940841, “A metabolically stable PET tracer for imaging synaptic vesicle protein 2A: synthesis and preclinical characterization of [^18F]SDM-16” (European Journal of Nuclear Medicine and Molecular Imaging, 2021).
Read-outs that look alike come from different tables or passages of the source.

How the values were obtained:
[1] = Plasma radiometabolite analysis during PET scans; type: in vivo, rhesus monkeys
Procedure: Arterial blood samples were collected during the PET scans to measure the radioactivity in plasma for generation of the metabolite-corrected arterial plasma input function. Plasma radiometabolite analysis was performed using the column-switching method, following a published protocol. Briefly, arterial blood samples were collected at 3-, 8-, 15-, 30-, 60-, 90-, 120-, and 180-min post-injection (p. i.), treated with urea (8 M), filtered, and injected onto a self-packed short column (4.6 × 19 mm) eluting with 1% MeCN in water at a flow rate of 2 mL/min. The sample was then back flushed onto a Gemini-NX column (5 μm, 4.6 mm × 250 mm) eluting with 40% MeCN/60% 0.1 M ammonium formate (pH 6.4) at a flow rate of 1.2 mL/min. The eluent was fraction-collected using an automated spectrum chromatography CF-1 fraction collector. Activity in the whole blood, plasma, filtrated plasma-urea mix, filters, and HPLC fractions were counted with automatic gamma well-counter (Wizard 2, PerkinElmer). The sample recovery rate, extraction efficiency, and HPLC fraction recovery were monitored. The unmetabolized [^18F]SDM-16 parent fraction was determined as the ratio of the sum of radioactivity in fractions containing the parent compound to the total amount of radioactivity collected and fitted with inverted Gamma4 approaches.
[^18F]SDM-16 had higher metabolite-corrected plasma SUV than the other SV2A radiotracers, indicating slower plasma clearance and higher metabolic stability (Fig. 2a). Whole-blood and plasma-input functions were highly consistent between the two animals, with a stable plasma to whole-blood ratio of 0.93 ± 0.13 over the entire 180-min acquisition period (Fig. S1).

[2] = Free base fraction in plasma by modified Henderson-Hasselbalch equation (Eq. 1); settings: Eq. 1, plasma pH 7.4
[3] = LEV blocking and displacement PET scans, Lassen plot; type: in vivo, rhesus monkeys (Macaca mulatta); settings: male, rhesus monkey, intravenous
Excerpt: (§1) Four monkeys were studied.
(§2) To examine the in vivo binding specificity, SV2A occupancy, and the extent of nonspecific binding in the monkey brain, we performed the Lassen plot analysis using data from the two baseline scans and one blocking scan in the same monkey.

[4] = Plasma free fraction (fp) by ultrafiltration; type: in vitro ADME, rhesus monkey; settings: monkey, plasma (separated from spiked whole blood)
Procedure: The unbound fraction of [^18F]SDM-16 in plasma (fp) of rhesus monkey was measured in triplicate using the ultrafiltration method. Briefly, [^18F]SDM-16 solution was added to 3 mL of whole blood. After incubation at ambient temperature for 5 min, the blood sample was centrifuged at 3900 rpm for 5 min. A sample of the supernatant plasma (0.3 mL) was loaded onto the reservoir of a Centrifree® Ultrafiltration device (Merck Millipore Ltd. Tullagreen, Carrigtwohill, Co. Cork, IRELAND) in triplicate and centrifuged at 1228 g for 20 min. The fp value was calculated as the ratio of radioactivity in the filtrate to that in the plasma.

[5] = Measurement of lipophilicity (octanol / PBS pH 7.4); type: physicochemical; settings: octanol/PBS pH 7.4
Procedure: The logP of [^18F]SDM-16 was determined by a method modified from previously published procedures. Briefly, an aliquot of […] (10 µCi) of the radioligand was added to a 2-mL microtube containing 0.8 mL of octanol and 0.8 mL of 1 × phosphate buffered saline (1 × PBS, pH 7.4). The mixture was vortexed for 30 s and then centrifuged at 2000 g for 2 min. A subsample of the octanol (0.1 mL) and 1 × PBS (0.5 mL) layers was evaluated with a gamma counter. The major portion of the octanol layer (0.5 mL) was diluted with another 0.3 mL of octanol, mixed with a fresh portion of 0.8 mL of PBS, vortexed, centrifuged, and analyzed as described above. This process was repeated until consistent log P values were obtained, with five consecutive equilibration procedures being performed for each logP measurement. Four separate measurements were performed for [^18F]SDM-16 on different days.

SV2A [6] = molecular target: SV2A (Macaca mulatta, UniProt H9EQH8); assay: LEV blocking and displacement PET scans, Lassen plot; type: in vivo, rhesus monkeys (Macaca mulatta); parameters: from tissue; host or cells: brain of living rhesus monkeys (in vivo PET); settings: for VT (blocking): LEV 30 mg/kg i.v.
Excerpt: as §1, §2

SV2A [7] = tested on: SV2A
Procedure: A total of 10 PET imaging experiments with [^18F]SDM-16 were performed in rhesus monkeys (Macaca mulatta) according to a protocol approved by the Yale University Institutional Animal Care and Use Committee (IACUC). Four monkeys were studied. […] Body temperature was maintained by a water-jacket heating pad. The animal was attached to a physiological monitor, and vital signs (heart rate, blood pressure, respirations, SPO2, EKG, ETCO2, and body temperature) were continuously monitored. A venous line was inserted in one limb for administration of radiotracer, displacement, and blocking drugs. A catheter was placed in the femoral artery in the other limb for blood sampling. Dynamic PET brain scans were performed on a Focus 220 system (Siemens Medical Solutions, Knoxville, TN, USA) with a reconstructed image resolution of approximately 1.5 mm. After a 9-min transmission scan, the radioligand was injected i.v. over 3 min. by an infusion pump. Dynamic PET scans were performed for 3 h (baseline and blocking scans) or 4 h (displacement scan).
PET images were reconstructed with built-in corrections for attenuation, normalization, scatter, randoms, and deadtime. PET brain images were registered to the animal’s MR image, which was subsequently registered to a brain atlas to define the regions of interest. Dynamic images were reconstructed using a Fourier rebinning and filtered back projection algorithm. A rhesus monkey brain atlas was used for generation of regions of interest (ROIs) and time − activity curves (TACs) for the following ROIs: amygdala, brain stem, caudate nucleus, centrum semiovale (CS), cerebellum, cingulate cortex, frontal cortex, globus pallidus, hippocampus, insula, nucleus accumbens, occipital cortex, pons, putamen, substantia nigra, temporal cortex, and thalamus.
Volume of distribution (VT, mL·cm^−3) values and the first-order kinetic rate constants of tracer (K1) were derived through 1-tissue (1T) compartment kinetic modeling with the metabolite-corrected arterial plasma input function, which was calculated as the product of the fitted total plasma curve and the parent radiotracer fraction curve. Nondisplaceable volume of distribution (VND) and SV2A occupancy by LEV was calculated using the Lassen plot [32]. Nondisplaceable binding potential (BPND) values were calculated from VT values using CS as reference region, or the VND derived from the blocking study, i.e., BPND = (VT, ROI − VT, CS)/ VT, CS or BPND = (VT/VND) -1.

Chain of SV2A (Macaca mulatta, UniProt H9EQH8) (H9EQH8 1-742): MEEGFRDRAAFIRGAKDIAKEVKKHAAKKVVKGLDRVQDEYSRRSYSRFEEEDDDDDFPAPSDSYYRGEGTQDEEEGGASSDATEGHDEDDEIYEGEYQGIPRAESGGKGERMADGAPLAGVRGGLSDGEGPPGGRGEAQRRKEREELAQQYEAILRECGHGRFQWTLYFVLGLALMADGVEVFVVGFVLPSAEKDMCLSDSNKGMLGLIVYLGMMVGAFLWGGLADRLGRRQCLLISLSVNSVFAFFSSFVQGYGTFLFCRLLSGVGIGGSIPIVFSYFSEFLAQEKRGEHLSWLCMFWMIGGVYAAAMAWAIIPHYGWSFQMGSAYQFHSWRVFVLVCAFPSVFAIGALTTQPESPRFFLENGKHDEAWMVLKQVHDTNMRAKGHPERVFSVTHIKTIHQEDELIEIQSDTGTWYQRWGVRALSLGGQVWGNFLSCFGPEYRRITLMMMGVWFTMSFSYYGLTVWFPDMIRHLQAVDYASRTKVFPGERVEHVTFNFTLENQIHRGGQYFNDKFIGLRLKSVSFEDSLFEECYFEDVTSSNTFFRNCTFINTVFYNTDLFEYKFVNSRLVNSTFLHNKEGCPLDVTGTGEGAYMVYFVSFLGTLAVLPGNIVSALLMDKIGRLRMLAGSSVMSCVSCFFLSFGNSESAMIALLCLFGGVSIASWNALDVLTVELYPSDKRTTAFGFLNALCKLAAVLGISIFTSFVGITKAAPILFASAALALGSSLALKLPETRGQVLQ

**Q.** For `Cc1nccn1CN1C[C@@H](c2cc(F)cc([18F])c2)CC1=O` [[^18F]SDM-16, (R)-4-(3-fluoro-5-(fluoro-^18F)phenyl)-1-((2-methyl-1H-imidazol-1-yl)methyl)pyrrolidin-2-one], which “parent fraction in plasma” value ([1]; 30 min p.i.) is on record?
**A.** 89 ± 5%

**Q.** What about the “parent fraction in plasma” value ([1]; 120 min p.i.) of the same compound?
**A.** 80 ± 7%

**Q.** And the “plasma to whole-blood ratio” value ([1]; over 180-min acquisition)?
**A.** 0.93 ± 0.13

**Q.** What about the “fraction present in plasma as free base” value [2] of the same compound?
**A.** 30%

**Q.** And the Kp ([3]; brain (caudate), Caudate, LEV 30 mg/kg i.v., read-out: VT (blocking))?
**A.** 7.7

**Q.** And the Kp ([3]; brain (putamen), Putamen, LEV 30 mg/kg i.v., read-out: VT (blocking))?
**A.** 8.8

**Q.** And the Kp ([3]; brain (thalamus), Thalamus, LEV 30 mg/kg i.v., read-out: VT (blocking))?
**A.** 8.2

**Q.** What about the Kp ([3]; brain, Lassen plot, read-out: VND) of the same compound?
**A.** 2.54

**Q.** What about the fraction unbound at 5 min [4] of the same compound?
**A.** 0.69

**Q.** And the logP [5]?
**A.** 1.65 ± 0.05

**Q.** What about the “VT (blocking)” value (SV2A [6]; Amygdala) of the same compound?
**A.** 4.5 mL/cm^3

**Q.** What about the “VT (blocking)” value (SV2A [6]; Brainstem) of the same compound?
**A.** 4.5 mL/cm^3

**Q.** What about the “VT (blocking)” value (SV2A [6]; Centrum semiovale) of the same compound?
**A.** 3.4 mL/cm^3

**Q.** What about the “VT (blocking)” value (SV2A [6]; Cerebellum) of the same compound?
**A.** 6.6 mL/cm^3

**Q.** And the “VT (blocking)” value (SV2A [6]; Cingulate cortex)?
**A.** 10.4 mL/cm^3

**Q.** What about the “VT (blocking)” value (SV2A [6]; Frontal cortex) of the same compound?
**A.** 9.5 mL/cm^3

**Q.** And the “VT (blocking)” value (SV2A [6]; Globus pallidus)?
**A.** 6.9 mL/cm^3

**Q.** And the “VT (blocking)” value (SV2A [6]; Hippocampus)?
**A.** 5.9 mL/cm^3

**Q.** What about the “VT (blocking)” value (SV2A [6]; Insular cortex) of the same compound?
**A.** 10.3 mL/cm^3

**Q.** And the “reduction of tracer uptake in LEV displacement” value (SV2A [6]; LEV 30 mg/kg i.v. at 120 min p.i., averaged from 5 brain regions, SUV at 4 h p.i. vs 180 min baseline)?
**A.** 58 ± 8%

**Q.** And the “VT (blocking)” value (SV2A [6]; Nucleus accumbens)?
**A.** 10.5 mL/cm^3

**Q.** What about the “VT (blocking)” value (SV2A [6]; Occipital cortex) of the same compound?
**A.** 8.3 mL/cm^3

**Q.** What about the “VT (blocking)” value (SV2A [6]; Temporal cortex) of the same compound?
**A.** 8.6 mL/cm^3

**Q.** And the “BPND in the LEV blocking scan” value (SV2A [6]; cingulate cortex and nucleus accumbens, 79% SV2A occupied by LEV)?
**A.** up to 2.11

**Q.** What about the “reduction of tracer uptake in gray matter by pre-blocking” value (SV2A [6]; preinjected LEV 30 mg/kg i.v., normalized terminal SUV) of the same compound?
**A.** 57 ± 10%

**Q.** And the “regional BPND range, CS as reference region” value (SV2A [7])?
**A.** 0.69-3.90

**Q.** And the “regional BPND range, VND method” value (SV2A [7])?
**A.** 2.9-15.1

**Q.** What about the “BPND, VND method” value (SV2A [7]; Amygdala) of the same compound?
**A.** 2.92 ± 0.25

**Q.** And the “BPND, VT(CS) method” value (SV2A [7]; Amygdala)?
**A.** 0.69 ± 0.23

**Q.** And the “BPND, VND method” value (SV2A [7]; Anterior cingulate)?
**A.** 15.13 ± 4.21

**Q.** And the “BPND, VT(CS) method” value (SV2A [7]; Anterior cingulate)?
**A.** 3.90 ± 1.38

**Q.** And the “BPND, VND method” value (SV2A [7]; Brainstem)?
**A.** 4.93 ± 0.15

**Q.** And the “BPND, VT(CS) method” value (SV2A [7]; Brainstem)?
**A.** 1.14 ± 0.24

**Q.** And the “BPND, VND method” value (SV2A [7]; Caudate)?
**A.** 8.76 ± 0.68

**Q.** And the “BPND, VT(CS) method” value (SV2A [7]; Caudate)?
**A.** 2.27 ± 0.68

**Q.** And the “BPND, VND method” value (SV2A [7]; Cerebellum)?
**A.** 9.47 ± 0.65

**Q.** And the “BPND, VT(CS) method” value (SV2A [7]; Cerebellum)?
**A.** 2.28 ± 0.53

**Q.** What about the “BPND, VND method” value (SV2A [7]; Cingulate cortex) of the same compound?
**A.** 14.97 ± 0.28

**Q.** And the “BPND, VT(CS) method” value (SV2A [7]; Cingulate cortex)?
**A.** 3.77 ± 1.28

**Q.** What about the “BPND, VND method” value (SV2A [7]; Frontal cortex) of the same compound?
**A.** 12.72 ± 0.76

**Q.** What about the “BPND, VT(CS) method” value (SV2A [7]; Frontal cortex) of the same compound?
**A.** 3.24 ± 1.07

**Q.** And the “BPND, VND method” value (SV2A [7]; Globus pallidus)?
**A.** 6.60 ± 0.33

**Q.** What about the “BPND, VT(CS) method” value (SV2A [7]; Globus pallidus) of the same compound?
**A.** 1.61 ± 0.42

**Q.** What about the “BPND ratio [^18F]SDM-16/[^11C]UCB-J” value (SV2A [7]; Guo plot) of the same compound?
**A.** 1.41

**Q.** What about the “BPND ratio [^18F]SDM-16/[^18F]SynVesT-1” value (SV2A [7]; Guo plot) of the same compound?
**A.** 0.99

**Q.** What about the “BPND, VND method” value (SV2A [7]; Hippocampus) of the same compound?
**A.** 6.55 ± 0.97

**Q.** What about the “BPND, VT(CS) method” value (SV2A [7]; Hippocampus) of the same compound?
**A.** 1.72 ± 0.44

**Q.** And the “BPND, VND method” value (SV2A [7]; Insular cortex)?
**A.** 13.77 ± 1.93

**Q.** And the “BPND, VT(CS) method” value (SV2A [7]; Insular cortex)?
**A.** 3.54 ± 1.31

**Q.** What about the “BPND, VND method” value (SV2A [7]; Nucleus accumbens) of the same compound?
**A.** 14.51 ± 0.23

**Q.** And the “BPND, VT(CS) method” value (SV2A [7]; Nucleus accumbens)?
**A.** 3.48 ± 1.35

**Q.** What about the “BPND, VND method” value (SV2A [7]; Occipital cortex) of the same compound?
**A.** 12.62 ± 1.09

**Q.** What about the “BPND, VT(CS) method” value (SV2A [7]; Occipital cortex) of the same compound?
**A.** 3.49 ± 0.90

**Q.** What about the “BPND, VND method” value (SV2A [7]; Putamen) of the same compound?
**A.** 11.50 ± 0.8

**Q.** What about the “BPND, VT(CS) method” value (SV2A [7]; Putamen) of the same compound?
**A.** 3.00 ± 1.00

**Q.** And the “BPND, VND method” value (SV2A [7]; Temporal cortex)?
**A.** 12.06 ± 0.54

**Q.** What about the “BPND, VT(CS) method” value (SV2A [7]; Temporal cortex) of the same compound?
**A.** 3.15 ± 0.52

**Q.** And the “BPND, VND method” value (SV2A [7]; Thalamus)?
**A.** 9.46 ± 0.19

**Q.** And the “BPND, VT(CS) method” value (SV2A [7]; Thalamus)?
**A.** 2.29 ± 0.72

**Q.** And the “BPND with CS VT lower than BPND with VND” value (SV2A [7]; average)?
**A.** 67%
